Test results: ChEMBL document CHEMBL3045033, “Synthesis of new potential anticancer agents based on 4-thiazolidinone and oleanane scaffolds” (Med Chem Res, 2012)
Several values for one entry are separate records, joined by “and”; a condition that tells them apart may be missing. Equal values may be shown once.

Assays:
Assay type in all cases: functional
SN12C [1] = assay: Cytotoxicity against Homo sapiens (human) SN12C cells after 48 hr by SRB assay
T47D = assay: Cytotoxicity against Homo sapiens (human) T47D cells after 48 hr by SRB assay
SF-295 = assay: Cytotoxicity against Homo sapiens (human) SF295 cells at 10^-4 to 10^-8 M after 48 hr by SRB assay; conditions: SF-295, 48 h, read-out: pTGI (converted)
RPMI-8226 [2] = assay: Cytotoxicity against Homo sapiens (human) RPMI8226 cells after 48 hr by SRB assay; conditions: RPMI-8226, 48 h
RXF 393 [3] = assay: Cytotoxicity against Homo sapiens (human) RXF393 cells at 10^-4 to 10^-8 M after 48 hr by SRB assay; conditions: RXF 393, 48 h, read-out: pTGI (converted)
K562 [4] = assay: Cytotoxicity against Homo sapiens (human) K562 cells at 10^-4 to 10^-8 M after 48 hr by SRB assay; conditions: K562, 48 h, read-out: pTGI (converted)
786-0 = assay: Cytotoxicity against Homo sapiens (human) 786-0 cells after 48 hr by SRB assay; conditions: 786-0, 48 h
NCI-H460 = assay: Cytotoxicity against Homo sapiens (human) NCI-H460 cells after 48 hr by SRB assay; conditions: NCI-H460, 48 h
UACC-62 = assay: Cytotoxicity against Homo sapiens (human) UACC62 cells after 48 hr by SRB assay; conditions: UACC-62, 48 h
RXF 393 [5] = assay: Cytotoxicity against Homo sapiens (human) RXF393 cells after 48 hr by SRB assay
IGROV-1 [6] = assay: Cytotoxicity against Homo sapiens (human) IGROV1 cells after 48 hr by SRB assay
MDA-MB-435 [7] = assay: Cytotoxicity against Homo sapiens (human) MDA-MB-435 cells at 10^-4 to 10^-8 M after 48 hr by SRB assay; conditions: MDA-MB-435, 48 h, read-out: pTGI (converted)
A549 = assay: Cytotoxicity against Homo sapiens (human) A549 cells after 48 hr by SRB assay; conditions: A549, 48 h
NCI-H522 = assay: Cytotoxicity against Homo sapiens (human) NCI-H522 cells after 48 hr by SRB assay; conditions: NCI-H522, 48 h; for CC50: read-out: pLC50 (the source's name) (converted)
MDA-MB-435 [8] = assay: Cytotoxicity against Homo sapiens (human) MDA-MB-435 cells after 48 hr by SRB assay; conditions: MDA-MB-435, 48 h; for CC50: read-out: pLC50 (the source's name) (converted)
HOP-92 = assay: Cytotoxicity against Homo sapiens (human) HOP92 cells after 48 hr by SRB assay; conditions: HOP-92, 48 h
HL-60(TB) = assay: Cytotoxicity against Homo sapiens (human) HL-60(TB) cells after 48 hr by SRB assay; conditions: HL-60, 48 h
TK-10 = assay: Cytotoxicity against Homo sapiens (human) TK10 cells after 48 hr by SRB assay; conditions: TK-10, 48 h
K562 [9] = assay: Cytotoxicity against Homo sapiens (human) K562 cells after 48 hr by SRB assay; conditions: K562, 48 h
SN12C [10] = assay: Cytotoxicity against Homo sapiens (human) SN12C cells at 10^-4 to 10^-8 M after 48 hr by SRB assay; conditions: read-out: pTGI (converted)
Malme-3M [11] = assay: Cytotoxicity against Homo sapiens (human) MALME-3M cells after 48 hr by SRB assay; conditions: for CC50: read-out: pLC50 (the source's name) (converted)
PC-3 = assay: Cytotoxicity against Homo sapiens (human) PC3 cells after 48 hr by SRB assay; conditions: PC-3, 48 h
M14 = assay: Cytotoxicity against Homo sapiens (human) M14 cells at 10^-4 to 10^-8 M after 48 hr by SRB assay; conditions: M14, 48 h, read-out: pTGI (converted)
HCT-15 = assay: Cytotoxicity against Homo sapiens (human) HCT15 cells after 48 hr by SRB assay; conditions: HCT-15, 48 h
SR = assay: Cytotoxicity against Homo sapiens (human) SR cells at 10^-4 to 10^-8 M after 48 hr by SRB assay; conditions: read-out: pTGI (converted)
HCT-116 = assay: Cytotoxicity against Homo sapiens (human) HCT116 cells after 48 hr by SRB assay; conditions: HCT-116, 48 h
SNB-75 = assay: Cytotoxicity against Homo sapiens (human) SNB75 cells at 10^-4 to 10^-8 M after 48 hr by SRB assay; conditions: SNB-75, 48 h, read-out: pTGI (converted)
MCF7 = assay: Cytotoxicity against Homo sapiens (human) MCF7 cells after 48 hr by SRB assay; conditions: MCF7, 48 h
IGROV-1 [12] = assay: Cytotoxicity against Homo sapiens (human) IGROV1 cells at 10^-4 to 10^-8 M after 48 hr by SRB assay; conditions: IGROV-1, 48 h, read-out: pTGI (converted)
KM12 = assay: Cytotoxicity against Homo sapiens (human) KM12 cells after 48 hr by SRB assay; conditions: KM12, 48 h
NCI-H23 = assay: Cytotoxicity against Homo sapiens (human) NCI-H23 cells after 48 hr by SRB assay; conditions: NCI-H23, 48 h
OVCAR-8 = assay: Cytotoxicity against Homo sapiens (human) OVCAR8 cells after 48 hr by SRB assay; conditions: OVCAR-8, 48 h
BT-549 = assay: Cytotoxicity against Homo sapiens (human) BT549 cells after 48 hr by SRB assay; conditions: BT-549, 48 h
SK-MEL-2 = assay: Cytotoxicity against Homo sapiens (human) SK-MEL-2 cells after 48 hr by SRB assay; conditions: SK-MEL-2, 48 h
HCC 2998 = assay: Cytotoxicity against Homo sapiens (human) HCC2998 cells after 48 hr by SRB assay; conditions: HCC 2998, 48 h
SF-268 = assay: Cytotoxicity against Homo sapiens (human) SF268 cells after 48 hr by SRB assay; conditions: SF-268, 48 h
MOLT-4 [13] = assay: Cytotoxicity against Homo sapiens (human) MOLT4 cells after 48 hr by SRB assay; conditions: MOLT-4, 48 h
Malme-3M [14] = assay: Cytotoxicity against Homo sapiens (human) MALME-3M cells at 10^-4 to 10^-8 M after 48 hr by SRB assay; conditions: read-out: pTGI (converted)
RPMI-8226 [15] = assay: Cytotoxicity against Homo sapiens (human) RPMI8226 cells assessed as cellular growth at 10^-5 M after 48 hr by SRB assay relative to untreated control
MOLT-4 [16] = assay: Cytotoxicity against Homo sapiens (human) MOLT4 cells assessed as cellular growth at 10^-5 M after 48 hr by SRB assay relative to untreated control
K562 [17] = assay: Cytotoxicity against Homo sapiens (human) K562 cells assessed as cellular growth at 10^-5 M after 48 hr by SRB assay relative to untreated control

Structure (SMILES)	GI50 (SN12C [1])	GI50 (T47D)	TGI (SF-295)	GI50 (RPMI-8226 [2])	TGI (RXF 393 [3])	TGI (K562 [4])	GI50 (786-0)	GI50 (NCI-H460)	GI50 (UACC-62)	TGI (MDA-MB-435 [7])	GI50 (A549)	CC50 (NCI-H522)	CC50 (MDA-MB-435 [8])	GI50 (HOP-92)	GI50 (HL-60(TB))	GI50 (TK-10)	TGI (SN12C [10])	TGI (M14)	TGI (SR)	TGI (SNB-75)	other results
COC(=O)[C@]12CCC(C)(C)C[C@H]1C1=CC[C@@H]3[C@@]4(C)CC/C(=N\O)C(C)(C)[C@@H]4CC[C@@]3(C)[C@]1(C)CC2	20.9 µM	25.1 µM	37.2 µM	39.8 µM	36.3 µM	> 100 µM	17.8 µM	21.9 µM	22.4 µM	> 100 µM	28.8 µM	> 100 µM	> 100 µM	19.1 µM	58.9 µM	33.9 µM	42.7 µM	57.5 µM	55 µM	38.9 µM	GI50 (RXF 393 [5]; Homo sapiens, RXF 393, 48 h): 18.2 µM; GI50 (IGROV-1 [6]; Homo sapiens, IGROV-1, 48 h): 33.9 µM; GI50 (NCI-H522): 26.3 µM; GI50 (MDA-MB-435 [8]): 39.8 µM; GI50 (K562 [9]): 37.2 µM; CC50 (Malme-3M [11]): > 100 µM; GI50 (PC-3): 20.4 µM; GI50 (HCT-15): 24 µM; GI50 (HCT-116): 29.5 µM; GI50 (MCF7): 20.4 µM; TGI (IGROV-1 [12]): > 100 µM; GI50 (KM12): 38.9 µM; GI50 (NCI-H23): 20 µM; GI50 (OVCAR-8): 34.7 µM; GI50 (BT-549): 64.6 µM; GI50 (SK-MEL-2): 64.6 µM; GI50 (HCC 2998): 22.9 µM; GI50 (SF-268): 24 µM; GI50 (MOLT-4 [13]): 37.2 µM
CC1(C)CC[C@@]23CC[C@]4(C)[C@@](OC2=O)([C@@H]3C1)[C@@H](Br)C[C@@H]1[C@@]2(C)CC/C(=N\O)C(C)(C)[C@@H]2CC[C@]14C	37.2 µM	17.4 µM	36.3 µM	> 100 µM	–	> 100 µM	49 µM	19.1 µM	18.6 µM	–	17.8 µM	> 100 µM	> 100 µM	4.37 µM	> 100 µM	18.6 µM	> 100 µM	> 100 µM	7.94 µM	60.3 µM	TGI (Malme-3M [14]): 23.4 µM; Activity (RPMI-8226 [15]): 38.33%; Activity (MOLT-4 [16]): 20.29%; Activity (K562 [17]): 21.17%; GI50 (K562 [9]): 56.2 µM; GI50 (Malme-3M [11]): 3.02 µM; CC50 (Malme-3M [11]): > 100 µM; GI50 (PC-3): 40.7 µM; GI50 (HCT-15): 30.9 µM; GI50 (HCT-116): 19.1 µM; GI50 (MCF7): 11.7 µM; GI50 (KM12): 8.91 µM; GI50 (NCI-H23): 38 µM; GI50 (OVCAR-8): 8.51 µM; GI50 (BT-549): 9.33 µM; GI50 (SK-MEL-2): > 100 µM; GI50 (HCC 2998): 81.3 µM; GI50 (SF-268): 27.5 µM; GI50 (MOLT-4 [13]): 14.1 µM
COC(=O)[C@]12CCC(C)(C)C[C@H]1C1=CC[C@@H]3[C@@]4(C)CC/C(=N\OC(=O)/C=C5/SC(=O)NC5=O)C(C)(C)[C@@H]4CC[C@@]3(C)[C@]1(C)CC2	–	–	20.9 µM	–	3.55 µM	8.13 µM	–	–	–	9.12 µM	–	–	–	–	–	–	18.6 µM	5.13 µM	3.89 µM	22.9 µM	TGI (Malme-3M [14]): 7.76 µM; Activity (RPMI-8226 [15]): 16.33%; Activity (MOLT-4 [16]): 2.28%; GI50 (RXF 393 [5]): 6.61 µM and 1.91 µM; GI50 (IGROV-1 [6]): 8.91 µM and 1.91 µM; Activity (K562 [17]): 26.64%; TGI (IGROV-1 [12]): 4.17 µM
